Results from ChEMBL document CHEMBL4414590, “Discovery of SIAIS178 as an Effective BCR-ABL Degrader by Recruiting Von Hippel-Lindau (VHL) E3 Ubiquitin Ligase” (J Med Chem, 2019).
Calls of active or inactive are those of the source. No cut-off for these calls is given here.

How the values were obtained:
[1] = biological target: T1, von Hippel-Lindau disease tumor suppressor/Tyrosine-protein kinase ABL1/Breakpoint cluster region protein (Homo sapiens, UniProt P00519+P11274+P40337); assay: Protac activity against VHL/BCR-ABL in human K562 cells assessed as reduction in BCR-ABL protein levels at 1 to 100 nM incubated for 16 hrs by Western blot analysis; assay type: cell-based
[2] = biological target: T2, Bcr/Abl fusion protein (Homo sapiens) (UniProt P00519+P11274); assay: Inhibition of BCR-ABL phosphorylation in human KU812 cells at 1 to 30 nM by Western blot analysis; assay type: cell-based
[3] = Permeability in human Caco2 cells at 10 uM incubated for 120 mins by LC-MS/MS analysis; assay type: ADME, cell-based; conditions: caco-2, 2 h
[4] = system: von Hippel-Lindau disease tumor suppressor/Tyrosine-protein kinase ABL1/Breakpoint cluster region protein (Homo sapiens), P00519+P11274+P40337 [T315I]; assay: Protac activity against VHL/BCR-ABL T315I mutant (unknown origin) expressed in human U937 cells assessed as induction of BCR-ABL degradation incubated for 16 hrs by Western blot analysis; assay type: cell-based
[5] = biological target: T1, von Hippel-Lindau disease tumor suppressor/Tyrosine-protein kinase ABL1/Breakpoint cluster region protein; assay: Protac activity against VHL/BCR-ABL in human K562 cells assessed as induction of BCR-ABL degradation pre-treated with 100 nM dasatinib for 2 hrs followed by compound addition at 100 nM and further incubated for 8 hrs by Western blot analysis; assay type: cell-based
[6] = biological target: T1, von Hippel-Lindau disease tumor suppressor/Tyrosine-protein kinase ABL1/Breakpoint cluster region protein; assay: Protac activity against VHL/BCR-ABL in human K562 cells assessed as induction of BCR-ABL degradation pre-treated with 4 uM VHL1 for 2 hrs followed by compound addition at 100 nM and further incubated for 8 hrs by Western blot analysis; assay type: cell-based
[7] = biological target: Tyrosine-protein kinase ABL1 (Homo sapiens) (UniProt P00519); assay: Binding affinity to human phosphorylated ABL1 (S229 to K512 residues) expressed in mammalian expression system assessed as residual binding level at 10 uM by Kinomescan method relative to control
[8] = system: K562; assay: Antitumor activity against luciferse expressing human K562 cells xenografted in NOD/SCID mouse assessed as attenuation of tumor progression at 5 to 15 mg/kg, ip QD for 12 days by serial volumetric analysis; assay type: functional, organism-based
[9] = biological target: von Hippel-Lindau disease tumor suppressor/Receptor-interacting serine/threonine-protein kinase 2 (Homo sapiens) (UniProt O43353+P40337); assay: Protac activity against VHL/RIPK2 in human K562 cells assessed as reduction in RIPK2 protein levels at 1 to 100 nM incubated for 16 hrs by Western blot analysis; assay type: cell-based
[10] = biological target: T1, von Hippel-Lindau disease tumor suppressor/Tyrosine-protein kinase ABL1/Breakpoint cluster region protein; assay: Protac activity against VHL/BCR-ABL in human K562 cells assessed as induction of BCR-ABL degradation at 100 nM incubated up to 24 hrs by Western blot analysis; assay type: cell-based; conditions: TDE = time-dependent effect
[11] = system: von Hippel-Lindau disease tumor suppressor/Tyrosine-protein kinase ABL1/Breakpoint cluster region protein (Homo sapiens), P00519+P11274+P40337 [T315A]; assay: Protac activity against VHL/BCR-ABL T315A mutant (unknown origin) expressed in human U937 cells assessed as induction of BCR-ABL degradation incubated for 16 hrs by Western blot analysis; assay type: cell-based
[12] = system: KU812 cell line; assay: Growth inhibition of human KU812 cells incubated for 2 days by CCK8 assay; assay type: functional, cell-based
[13] = system: von Hippel-Lindau disease tumor suppressor/Tyrosine-protein kinase ABL1/Breakpoint cluster region protein (Homo sapiens), P00519+P11274+P40337 [F317V]; assay: Protac activity against VHL/BCR-ABL F317V mutant (unknown origin) expressed in human U937 cells assessed as induction of BCR-ABL degradation incubated for 16 hrs by Western blot analysis; assay type: cell-based
[14] = system: K562; assay: Effect on YES protein level in human K562 cells at 100 nM incubated for 16 hrs by multiplexed tandem mass spectrometry; assay type: ADME, cell-based; conditions: k562, 16 h, 0.1 µM
[15] = biological target: T2, Bcr/Abl fusion protein (Homo sapiens); assay: Inhibition of BCR-ABL in human K562 cells assessed as reduction in STAT5 phosphorylation at 1 to 100 nM by Western blot analysis; assay type: cell-based
[16] = biological target: T2, Bcr/Abl fusion protein (Homo sapiens); assay: Inhibition of BCR-ABL phosphorylation in human K562 cells at 1 to 100 nM by Western blot analysis; assay type: cell-based
[17] = system: U-937; assay: Growth inhibition of human U937 cells incubated for 2 days by CCK8 assay; assay type: functional, cell-based
[18] = biological target: T2, Bcr/Abl fusion protein (Homo sapiens); assay: Inhibition of BCR-ABL in human KU812 cells assessed as reduction in STAT5 phosphorylation at 1 to 30 nM by Western blot analysis; assay type: cell-based
[19] = system: Mus musculus; assay: Inhibition of BCR-ABL phosphorylation in NOD/SCID mouse xenografted with luciferse expressing human K562 cells at 5 to 15 mg/kg, ip QD for 4 days by Western blotting analysis; assay type: functional, organism-based
[20] = biological target: T1, von Hippel-Lindau disease tumor suppressor/Tyrosine-protein kinase ABL1/Breakpoint cluster region protein; assay: Protac activity against VHL/BCR-ABL in human K562 cells assessed as induction of BCR-ABL degradation pre-treated with 2.5 uM proteasome inhibitor MG132 for 2 hrs followed by compound addition at 100 nM and further incubated for 8 hrs by Western blot analysis; assay type: cell-based
[21] = system: HL-60; assay: Growth inhibition of human HL60 cells incubated for 2 days by CCK8 assay; assay type: functional, cell-based
[22] = biological target: T1, von Hippel-Lindau disease tumor suppressor/Tyrosine-protein kinase ABL1/Breakpoint cluster region protein; assay: Induction of ternary complex formation between VHL and BCR-ABL (unknown origin) expressed in HEK293 cells expressing N-terminal BCR-ABL LgBit fusion protein and N-terminal SmBit-VHL fusion protein at 1 uM incubated for 1 hr by NanoBit technology based luciferase complementation assay; assay type: cell-based
[23] = biological target: von Hippel-Lindau disease tumor suppressor/Mast/stem cell growth factor receptor Kit (Homo sapiens) (UniProt P10721+P40337); assay: Protac activity against VHL/KIT in human K562 cells assessed as reduction in Kit protein levels at 1 to 100 nM incubated for 16 hrs by Western blot analysis; assay type: cell-based
[24] = system: von Hippel-Lindau disease tumor suppressor/Tyrosine-protein kinase ABL1/Breakpoint cluster region protein (Homo sapiens), P00519+P11274+P40337 [V299L]; assay: Protac activity against VHL/BCR-ABL V299L mutant (unknown origin) expressed in human U937 cells assessed as induction of BCR-ABL degradation incubated for 16 hrs by Western blot analysis; assay type: cell-based

T1 sequence (P00519 whole entry, looked up, the tested form may be a part): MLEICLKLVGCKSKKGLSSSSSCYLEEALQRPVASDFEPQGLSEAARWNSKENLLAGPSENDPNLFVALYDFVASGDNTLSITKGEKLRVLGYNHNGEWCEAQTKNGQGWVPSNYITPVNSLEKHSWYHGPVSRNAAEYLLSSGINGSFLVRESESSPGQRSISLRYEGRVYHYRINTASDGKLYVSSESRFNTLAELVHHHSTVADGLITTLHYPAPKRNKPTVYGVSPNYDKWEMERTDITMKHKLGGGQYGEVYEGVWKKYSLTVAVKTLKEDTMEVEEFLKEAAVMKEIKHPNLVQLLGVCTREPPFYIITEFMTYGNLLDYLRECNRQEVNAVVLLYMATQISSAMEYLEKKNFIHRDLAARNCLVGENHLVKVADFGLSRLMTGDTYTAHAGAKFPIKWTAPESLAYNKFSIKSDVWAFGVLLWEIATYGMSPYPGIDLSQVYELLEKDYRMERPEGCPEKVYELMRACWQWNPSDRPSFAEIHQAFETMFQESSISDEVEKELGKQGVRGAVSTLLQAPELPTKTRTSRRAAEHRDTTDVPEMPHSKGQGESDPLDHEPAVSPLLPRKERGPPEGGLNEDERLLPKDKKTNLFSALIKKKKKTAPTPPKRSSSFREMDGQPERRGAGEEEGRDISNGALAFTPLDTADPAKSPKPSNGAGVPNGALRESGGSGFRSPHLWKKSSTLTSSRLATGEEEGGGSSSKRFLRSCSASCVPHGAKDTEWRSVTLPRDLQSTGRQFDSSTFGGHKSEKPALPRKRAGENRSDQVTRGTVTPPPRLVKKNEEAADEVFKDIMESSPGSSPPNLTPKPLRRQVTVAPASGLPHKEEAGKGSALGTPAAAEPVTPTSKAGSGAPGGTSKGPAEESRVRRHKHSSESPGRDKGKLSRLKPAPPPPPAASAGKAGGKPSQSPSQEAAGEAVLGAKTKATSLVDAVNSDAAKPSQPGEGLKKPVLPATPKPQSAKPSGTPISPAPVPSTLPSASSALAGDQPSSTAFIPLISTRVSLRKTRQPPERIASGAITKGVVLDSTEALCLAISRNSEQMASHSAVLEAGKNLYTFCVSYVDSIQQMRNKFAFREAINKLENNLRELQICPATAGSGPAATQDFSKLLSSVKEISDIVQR
T1 sequence (P11274 whole entry, looked up, the tested form may be a part): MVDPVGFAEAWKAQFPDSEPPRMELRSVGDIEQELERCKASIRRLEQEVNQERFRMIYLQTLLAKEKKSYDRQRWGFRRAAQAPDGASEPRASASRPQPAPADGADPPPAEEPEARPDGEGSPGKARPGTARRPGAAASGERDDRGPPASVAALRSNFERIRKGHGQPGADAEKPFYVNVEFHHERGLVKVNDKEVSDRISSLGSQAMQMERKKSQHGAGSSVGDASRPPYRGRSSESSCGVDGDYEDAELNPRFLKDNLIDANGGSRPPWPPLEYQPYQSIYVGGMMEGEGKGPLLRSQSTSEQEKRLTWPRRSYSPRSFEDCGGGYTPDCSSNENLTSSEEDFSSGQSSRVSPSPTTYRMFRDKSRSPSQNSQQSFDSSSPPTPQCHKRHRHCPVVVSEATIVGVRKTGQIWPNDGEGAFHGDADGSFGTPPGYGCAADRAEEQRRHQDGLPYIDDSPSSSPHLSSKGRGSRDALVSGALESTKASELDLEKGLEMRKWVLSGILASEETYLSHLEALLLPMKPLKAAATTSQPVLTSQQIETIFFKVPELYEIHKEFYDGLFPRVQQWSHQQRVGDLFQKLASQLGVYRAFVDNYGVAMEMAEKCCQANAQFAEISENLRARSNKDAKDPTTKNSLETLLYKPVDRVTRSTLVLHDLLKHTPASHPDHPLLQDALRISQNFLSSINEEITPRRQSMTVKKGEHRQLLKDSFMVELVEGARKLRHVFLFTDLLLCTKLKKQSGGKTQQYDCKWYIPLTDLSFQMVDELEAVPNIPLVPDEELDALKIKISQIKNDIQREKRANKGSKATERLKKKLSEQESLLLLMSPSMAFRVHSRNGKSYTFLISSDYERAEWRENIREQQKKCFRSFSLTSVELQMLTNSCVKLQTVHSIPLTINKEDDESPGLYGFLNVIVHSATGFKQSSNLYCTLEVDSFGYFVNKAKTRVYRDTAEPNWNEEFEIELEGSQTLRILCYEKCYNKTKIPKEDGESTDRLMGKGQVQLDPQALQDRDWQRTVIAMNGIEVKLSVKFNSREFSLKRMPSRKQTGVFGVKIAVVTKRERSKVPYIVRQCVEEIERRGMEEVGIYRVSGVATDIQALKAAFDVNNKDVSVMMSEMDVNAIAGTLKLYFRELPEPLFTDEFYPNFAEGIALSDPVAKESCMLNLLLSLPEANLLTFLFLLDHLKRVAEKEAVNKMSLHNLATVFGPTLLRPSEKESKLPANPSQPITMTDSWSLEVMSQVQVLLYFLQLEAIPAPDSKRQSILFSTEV
T1 sequence (P40337 whole entry, looked up, the tested form may be a part): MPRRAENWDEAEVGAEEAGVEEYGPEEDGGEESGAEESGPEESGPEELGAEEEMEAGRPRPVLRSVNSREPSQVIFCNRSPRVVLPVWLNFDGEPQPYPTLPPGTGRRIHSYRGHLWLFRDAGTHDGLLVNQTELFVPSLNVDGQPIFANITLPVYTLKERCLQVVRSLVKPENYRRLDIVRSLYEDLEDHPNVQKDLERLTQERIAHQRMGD
T2 sequence (P00519 whole entry, looked up, the tested form may be a part): as the sequence (P00519 whole entry, looked up, the tested form may be a part) above
T2 sequence (P11274 whole entry, looked up, the tested form may be a part): as the sequence (P11274 whole entry, looked up, the tested form may be a part) above
von Hippel-Lindau disease tumor suppressor/Mast/stem cell growth factor receptor Kit (Homo sapiens), sequence (P10721 whole entry, looked up): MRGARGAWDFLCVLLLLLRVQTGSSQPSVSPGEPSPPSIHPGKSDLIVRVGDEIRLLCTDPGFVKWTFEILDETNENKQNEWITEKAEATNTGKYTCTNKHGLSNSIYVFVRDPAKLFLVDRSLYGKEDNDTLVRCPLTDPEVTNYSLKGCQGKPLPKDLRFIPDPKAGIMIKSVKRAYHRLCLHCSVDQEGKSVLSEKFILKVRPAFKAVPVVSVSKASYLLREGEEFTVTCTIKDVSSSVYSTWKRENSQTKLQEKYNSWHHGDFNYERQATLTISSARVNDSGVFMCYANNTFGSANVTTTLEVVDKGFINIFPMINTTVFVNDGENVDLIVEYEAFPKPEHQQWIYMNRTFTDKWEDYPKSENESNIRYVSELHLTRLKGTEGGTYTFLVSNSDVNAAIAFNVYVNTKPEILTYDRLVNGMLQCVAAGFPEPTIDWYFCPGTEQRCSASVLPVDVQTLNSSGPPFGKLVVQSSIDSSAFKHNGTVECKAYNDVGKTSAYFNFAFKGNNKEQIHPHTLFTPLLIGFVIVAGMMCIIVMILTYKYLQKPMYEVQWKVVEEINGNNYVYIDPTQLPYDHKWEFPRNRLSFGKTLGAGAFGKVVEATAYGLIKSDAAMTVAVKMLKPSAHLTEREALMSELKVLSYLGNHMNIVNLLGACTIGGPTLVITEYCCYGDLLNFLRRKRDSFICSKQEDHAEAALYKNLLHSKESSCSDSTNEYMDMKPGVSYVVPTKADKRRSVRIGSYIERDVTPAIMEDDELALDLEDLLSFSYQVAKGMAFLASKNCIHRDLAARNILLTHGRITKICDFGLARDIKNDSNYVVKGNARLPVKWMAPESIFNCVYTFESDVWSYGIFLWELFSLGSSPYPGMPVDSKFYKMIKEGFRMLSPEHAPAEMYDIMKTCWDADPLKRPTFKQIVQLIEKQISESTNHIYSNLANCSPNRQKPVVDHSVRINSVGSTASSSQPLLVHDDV
von Hippel-Lindau disease tumor suppressor/Mast/stem cell growth factor receptor Kit (Homo sapiens), sequence (P40337 whole entry, looked up): as the sequence (P40337 whole entry, looked up, the tested form may be a part) above
Tyrosine-protein kinase ABL1 (Homo sapiens), sequence (P00519 whole entry, the tested form may be a part): as the sequence (P00519 whole entry, looked up, the tested form may be a part) above
von Hippel-Lindau disease tumor suppressor/Receptor-interacting serine/threonine-protein kinase 2 (Homo sapiens), sequence (O43353 whole entry, looked up): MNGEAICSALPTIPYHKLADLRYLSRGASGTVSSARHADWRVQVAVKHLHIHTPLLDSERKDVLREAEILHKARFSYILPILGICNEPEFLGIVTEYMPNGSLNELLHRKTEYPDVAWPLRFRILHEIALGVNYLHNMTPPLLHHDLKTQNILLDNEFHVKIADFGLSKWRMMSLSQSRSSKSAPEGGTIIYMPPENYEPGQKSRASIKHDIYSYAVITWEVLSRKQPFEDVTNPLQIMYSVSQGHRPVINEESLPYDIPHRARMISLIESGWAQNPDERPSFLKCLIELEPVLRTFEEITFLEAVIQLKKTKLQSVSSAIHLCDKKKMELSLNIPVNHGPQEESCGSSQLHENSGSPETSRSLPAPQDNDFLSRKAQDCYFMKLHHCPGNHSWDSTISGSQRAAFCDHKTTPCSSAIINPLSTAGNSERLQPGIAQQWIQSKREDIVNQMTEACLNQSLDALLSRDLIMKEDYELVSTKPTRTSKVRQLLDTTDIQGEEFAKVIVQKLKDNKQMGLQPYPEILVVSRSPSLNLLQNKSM
von Hippel-Lindau disease tumor suppressor/Receptor-interacting serine/threonine-protein kinase 2 (Homo sapiens), sequence (P40337 whole entry, looked up): as the sequence (P40337 whole entry, looked up, the tested form may be a part) above

Cc1nc(Nc2ncc(C(=O)Nc3c(C)cccc3Cl)s2)cc(N2CCN(C(=O)CCCCCCC(=O)N[C@H](C(=O)N3C[C@H](O)C[C@H]3C(=O)NCc3ccc(-c4scnc4C)cc3)C(C)(C)C)CC2)n1
Activity [1]: Dose-dependent effect | inhibition [2]: Active | permeability [3]: Permeable | Activity [4]: inactive | Activity [5]: inactive | Activity [6]: inactive | Activity [7]: Active | Activity [8]: Dose-dependent effect | Activity [9]: Dose-dependent effect | Activity [10]: Tde | Activity [11]: inactive | growth inhibition (GI) [12]: Active | Activity [13]: Dose-dependent effect | Activity [14]: Non-Toxic | inhibition [15]: Active | inhibition [16]: Active | growth inhibition (GI) [17]: inactive | inhibition [18]: Active | inhibition [19]: Active | Activity [20]: inactive | growth inhibition (GI) [21]: inactive | Activity [22]: Active | Activity [23]: inactive | Activity [24]: Dose-dependent effect
